From the NIST ThermoML archive (doi:10.1021/je025566c)

Conditions: Liquid

Oc1ccccc1 [phenol]
Conditions	vapor or sublimation pressure [kPa]
353.15 K	2.037
373.15 K	5.541
393.15 K	13.15

CC(O)c1ccccc1 (centres undefined) [1-phenylethanol]
Conditions	vapor or sublimation pressure [kPa]
353.15 K	0.76
358.41 K	1.033
362.36 K	1.296
366.37 K	1.613
371.46 K	2.112
373.15 K	2.301
377.83 K	2.909
382.98 K	3.728
387.28 K	4.557
393.15 K	5.934
393.34 K	5.985
398.01 K	7.325

CCCCOC=O [butyl methanoate]
Conditions	vapor or sublimation pressure [kPa]
313.16 K	7.978
318.33 K	10.19
323.32 K	12.79
328.57 K	16.08
333.14 K	19.5
333.15 K	19.5
343.14 K	29.1
343.15 K	29.1
353.14 K	42.24
353.15 K	42.24
358.67 K	51.34

CCOCCO [2-ethoxyethan-1-ol]
Conditions	vapor or sublimation pressure [kPa]
333.15 K	5.3
343.15 K	8.646
353.15 K	13.62
